US8697694B2, “Substituted pyridine and pyrimidine derivatives and their use in treating viral infections” (priority 2008, dated 2014)
Where two headings read alike, the source gives them in different places.

Test system: HCV replicon cells
Assay: Cell-based HCV replicon assay (replicon RNA level by real time PCR, Taqman)
Conditions: Hepatitis C virus, 72 h, HCV replicon cells, read-out: EC90 (μM) range
Procedure: Assays Cell-Based HCV Replicon Assay
To measure cell-based anti-HCV activity of the compounds of the present invention, replicon cells were seeded at 5000 cells/well in 96-well collagen I-coated Nunc plates in the presence of the compound of the invention. Various concentrations of a compound of the invention, typically in 10 serial 2-fold dilutions, were added to the assay mixture, the starting concentration of the compound ranging from 25 μM to 1 μM. The final concentration of DMSO was 0.5%, fetal bovine serum was 10%, in the assay media. Cells were harvested on day 3 by the addition of 1× cell lysis buffer (Ambion cat #8721). The replicon RNA level was measured using real time PCR (Taqman assay). The amplicon was located in 5B. The PCR primers were: 5B.2F, ATGGACAGGCGCCCTGA (SEQ. ID NO. 1); 5B.2R, […] (SEQ. ID NO. 2); the probe sequence was FAM-labeled CACGCCATGCGCTGCGG (SEQ. ID NO. 3). GAPDH RNA was used as endogenous control and was amplified in the same reaction as NS5B (multiplex PCR) using primers and VIC-labeled probe recommended by the manufacturer (PE Applied Biosystem). The real-time RT-PCR reactions were run on ABI PRISM 7900HT Sequence Detection System using the following program: 48′C for 30 min, 95° C. for 10 min, 40 cycles of 95° C. for 15 sec, 60° C. for 1 min. The ΔCT values (CT5B-CTGAPDH) were plotted against the concentration of test compound and fitted to the sigmoid dose-response model using GraphPad PRISM software. EC50 was defined as the concentration of inhibitor necessary to achieve ΔCT=1 over the projected baseline; EC90 the concentration necessary to achieve ΔCT=3.2 over the baseline. Alternatively, to quantitate the absolute amount of replicon RNA, a standard curve was established by including serially diluted T7 transcripts of replicon RNA in the Taqman assay. All Taqman reagents were from PE Applied Biosystems. Such an assay procedure was described in detail in e.g. Malcolm et al., Antimicrobial Agents and Chemotherapy 50: 1013-1020 (2006).
HCV Replicon assay data for compounds of the invention that were tested was obtained using the above method. Calculated EC90 values are reported for each compound in Table I as a falling within the following ranges: […]

[1] = replicon RNA level by real time PCR (Taqman), harvested on day 3, calculated EC90 reported as range class
[2] = replicon RNA level by real time PCR, harvested day 3
[3] = harvested day 3, replicon RNA by real time PCR, reported as range class
[4] = harvested on day 3, replicon RNA by real time PCR, calculated EC90 reported as range class
[5] = harvested day 3, replicon RNA by real time PCR, given as number

Cc1nc(NCc2ccccc2)nc(N[C@@H]2C[C@H](CO)[C@@H](O)[C@H]2O)c1-c1nc2cnccc2s1 [Example 540]
EC90 [1]: < 0.5 µM

Cc1nc(NCc2cccc(C(=O)O)c2)nc(N[C@@H]2C[C@H](CO)[C@@H](O)[C@H]2O)c1-c1nc2ccccc2s1 [Example 1219]
EC90 [1]: > 5 µM

COc1cc(CNc2nc(C)c(-c3nc4cnccc4s3)c(N[C@@H]3C[C@H](CO)[C@@H](O)[C@H]3O)n2)cc(OC)c1 [Example 537]
EC90 [1]: < 0.5 µM

Cc1nc(N[C@H](C)C2CC2)nc(N[C@@H]2CC[C@@H](O)[C@@]2(C)O)c1-c1nc2cnccc2s1 [Example 1811]
EC90 [2]: < 0.5 µM

Cc1ccc(CCNc2nc(C)c(-c3nc4ccccc4s3)c(N[C@@H]3C[C@H](CO)[C@@H](O)[C@H]3O)n2)s1 [Example 1812]
EC90 [2]: 0.5 to 5 µM

Nc1nc(Cl)c(-c2nccs2)c(N[C@@H]2C[C@H](CO)[C@@H](O)[C@H]2O)n1 [Example 104]
EC90 [3]: > 5 µM

CCCOc1cc2cc(-c3c(C)nc(NCCOC)nc3N[C@@H]3C[C@H](CO)[C@@H](O)[C@H]3O)oc2cn1 [Example 60]
EC90 [3]: > 5 µM

Cc1ccsc1CCNc1nc(C)c(-c2nc3cnccc3s2)c(N[C@@H]2C[C@H](CO)[C@@H](O)[C@H]2O)n1 [Example 1707]
EC90 [2]: < 0.5 µM

Cc1cc2cc(-c3c(C)nc(NCC4CCCCC4)nc3N[C@@H]3C[C@H](CO)[C@@H](O)[C@H]3O)oc2c(C)n1 [Example 461]
EC90 [4]: < 0.5 µM

Cc1ccc([C@H](C)Nc2nc(C)c(-c3nc4cnccc4s3)c(N[C@@H]3C[C@H](CO)[C@@H](O)[C@H]3O)n2)cc1 [Example 1314]
EC90 [1]: 0.5 to 5 µM

OC[C@H]1C[C@@H](Nc2nc(NC3CCNCC3)nc(Cl)c2-c2nc3ccccc3s2)[C@H](O)[C@@H]1O [Example 510]
EC90 [4]: > 5 µM

Cc1nc(NCc2ccccn2)nc(N[C@@H]2C[C@H](CO)[C@@H](O)[C@H]2O)c1-c1nc2ccccc2s1 [Example 465]
EC90 [4]: < 0.5 µM

Cc1nc(NCc2cc3ccccc3s2)nc(N[C@@H]2C[C@H](CO)[C@H]3OC(C)(C)O[C@H]32)c1-c1nc2ccccc2s1 [Example 475]
EC90 [4]: 0.5 to 5 µM

CCCc1nccc2sc(-c3c(C)nc(N[C@H](C)C4CC4)nc3N[C@@H]3C[C@H](CNS(C)(=O)=O)[C@@H](O)[C@H]3O)nc12 [Example 1387]
EC90 [2]: < 0.5 µM

CCNC(=O)NC[C@H]1C[C@@H](Nc2nc(NCC(F)(F)F)nc(C)c2-c2nc3ccccc3s2)[C@H](O)[C@@H]1O [Example 1377]
EC90 [2]: 0.5 to 5 µM

CCN(CC)C(=O)OC[C@H]1C[C@@H](Nc2nc(NCC(F)(F)F)nc(C)c2-c2nc3ccccc3s2)[C@H](O)[C@@H]1O [Example 65]
EC90 [5]: 1 µM

CN(C)c1ccc2sc(-c3c(Cl)nc(N(C)C)nc3N[C@@H]3C[C@H](CO)[C@@H](O)[C@H]3O)nc2c1 [Example 204]
EC90 [3]: > 5 µM

COCCCCNc1nc(C)c(-c2nc3ccccc3s2)c(N[C@@H]2C[C@H](CO)[C@@H](O)[C@H]2O)n1 [Example 1048]
EC90 [1]: < 0.5 µM

Nc1nc(Cl)c(-c2cc3ccc(C(=O)N4CCOCC4)cc3o2)c(N[C@@H]2C[C@H](CO)[C@@H](O)[C@H]2O)n1 [Example 179]
EC90 [3]: > 5 µM

Nc1nc(Cl)c(-c2ccc(C=O)s2)c(N[C@@H]2C[C@H](CO)[C@@H](O)[C@H]2O)n1 [Example 155]
EC90 [3]: > 5 µM

Cc1nc(N(C)Cc2ccccc2)nc(N[C@@H]2C[C@H](CO)[C@@H](O)[C@H]2O)c1-c1nc2ccccc2s1 [Example 1116]
EC90 [1]: > 5 µM

Cc1nc(NCCNC(=O)NC(C)(C)C)nc(N[C@@H]2C[C@H](CO)[C@H]3OC(C)(C)O[C@H]32)c1-c1nc2ccccc2s1 [Example 249]
EC90 [4]: > 5 µM

Cc1nc(NCCNC(=O)NC(C)(C)C)nc(N[C@@H]2C[C@H](CO)[C@@H](O)[C@H]2O)c1-c1nc2ccccc2s1 [Example 250]
EC90 [4]: 0.5 to 5 µM

Cc1nc(NCc2cc3cn[nH]c3cc2F)nc(N[C@@H]2C[C@H](CO)[C@@H](O)[C@H]2O)c1-c1nc2ccccc2s1 [Example 1909]
EC90 [2]: < 0.5 µM

CCNC(=O)OC[C@H]1C[C@@H](Nc2nc(NCC(F)(F)F)nc(C)c2-c2nc3ccccc3s2)[C@H](O)[C@@H]1O [Example 1628]
EC90 [2]: < 0.5 µM

C=CCNc1nc(C)c(C2=NC3=C=CC=CC3S2)c(N[C@@H]2C[C@H](CO)[C@@H](O)[C@H]2O)n1 (some centres unmarked) [Example 1906]
EC90 [2]: 0.5 to 5 µM

Cc1nc(N[C@@H](c2ccc(-n3cccn3)cc2)C(F)(F)F)nc(N[C@@H]2C[C@H](CO)[C@@H](O)[C@H]2O)c1-c1nc2c(C)nccc2s1 [Example 1541]
EC90 [2]: < 0.5 µM

Cc1nc(NCC(F)(F)F)nc(N[C@@H]2CC[C@@H](O)[C@@]2(C)O)c1-c1nc2ccccc2s1 [Example 1702]
EC90 [2]: 0.5 to 5 µM

Nc1nc(Cl)c(-c2cccc(N3CCOCC3)n2)c(N[C@@H]2C[C@H](CO)[C@@H](O)[C@H]2O)n1 [Example 158]
EC90 [3]: > 5 µM

CCCCCNc1nc(Cl)c(-c2cc3cc(CC)ncc3o2)c(N[C@@H]2C[C@H](CO)[C@@H](O)[C@H]2O)n1 [Example 511]
EC90 [4]: < 0.5 µM

Cc1ccccc1CNc1nc(C)c(-c2nc3ccccc3s2)c(N[C@@H]2C[C@H](CO)[C@@H](O)[C@H]2O)n1 [Example 488]
EC90 [4]: < 0.5 µM

CCc1ccc([C@@H](C)Nc2nc(C)c(-c3nc4c(C)nccc4s3)c(N[C@@H]3C[C@H](CO)[C@@H](O)[C@H]3O)n2)cc1 [Example 1526]
EC90 [2]: < 0.5 µM

Cc1ccc([C@@H](C)Nc2nc(C)c(-c3nc4cnccc4s3)c(N[C@@H]3C[C@H](CO)[C@@H](O)[C@@]3(C)O)n2)cc1 [Example 1708]
EC90 [2]: < 0.5 µM

Cc1nc(NCC(C)(C)F)nc(N[C@@H]2C[C@H](CO)[C@@H](O)[C@H]2O)c1-c1nc2ccccc2s1 [Example 1243]
EC90 [1]: 0.5 to 5 µM

Cc1nc(NCC2CC2)nc(N[C@@H]2C[C@H](CO)[C@@H](O)[C@H]2O)c1-c1cc2cc(OCC3CCC3)nc(C)c2o1 [Example 1059]
EC90 [1]: > 5 µM

CCOCCNc1nc(C)c(-c2nc3ccccc3n2C)c(N[C@@H]2C[C@H](CO)[C@@H](O)[C@H]2O)n1 [Example 531]
EC90 [1]: > 5 µM

Cc1nc(NCc2cccc(C(F)(F)F)c2)nc(N[C@@H]2C[C@H](CO)[C@@H](O)[C@H]2O)c1-c1nc2ccccc2s1 [Example 240]
EC90 [4]: < 0.5 µM

Cc1cnc(CNc2nc(C)c(-c3nc4ccccc4s3)c(N[C@@H]3C[C@H](CO)[C@@H](O)[C@H]3O)n2)s1 [Example 1204]
EC90 [1]: < 0.5 µM

Cc1ccc(CNc2nc(C)c(-c3nc4ccccc4s3)c(N[C@@H]3C[C@H](CO)[C@@H](O)[C@H]3O)n2)cc1 [Example 490]
EC90 [4]: < 0.5 µM

Cc1nc(NCc2nccs2)nc(N[C@@H]2C[C@H](CO)[C@H]3OC(C)(C)O[C@H]32)c1-c1nc2ccccc2s1 [Example 472]
EC90 [4]: < 0.5 µM

Cc1nc(NCC2CC2)nc(N[C@@H]2C[C@H](CO)[C@@H](O)[C@H]2O)c1-c1cc2cc(OCC3CC3)nc(C)c2o1 [Example 42]
EC90 [5]: 0.3 µM

CCCCCNc1nc(C)c(-c2cc3cc(C)nc(C)c3o2)c(N[C@@H]2C[C@H](CO)[C@@H](O)[C@H]2O)n1 [Example 452]
EC90 [4]: < 0.5 µM

COc1cc2cc(-c3c(C)nc(NCC(C)(C)C)nc3N[C@@H]3C[C@H](CO)[C@@H](O)[C@H]3O)oc2c(C)n1 [Example 1201]
EC90 [1]: 0.5 to 5 µM

Cc1ccc2oc(-c3c(Cl)nc(N)nc3N[C@@H]3C[C@H](CO)[C@@H](O)[C@H]3O)nc2c1 [Example 193]
EC90 [3]: > 5 µM

COc1cc(OC)cc([C@@H](C)Nc2nc(C)c(-c3nc4cnccc4s3)c(N[C@@H]3C[C@H](CO)[C@@H](O)[C@H]3O)n2)c1 [Example 1307]
EC90 [1]: < 0.5 µM

COc1cc2cc(-c3c(Cl)nc(N)nc3N[C@@H]3C[C@H](CO)[C@@H](O)[C@H]3O)oc2cn1 [Example 11]
EC90 [3]: < 0.5 µM

Cc1nc(NCC(C)(C)C)nc(N[C@@H]2C[C@H](CO)[C@@H](O)[C@H]2O)c1-c1cc2cc(OCC3CC3)ncc2o1 [Example 58]
EC90 [5]: 1 µM

CCc1cc2cc(-c3c(C)nc(NCc4nccs4)nc3N[C@@H]3C[C@H](CO)[C@H]4OC(C)(C)O[C@H]43)oc2cn1 [Example 341]
EC90 [4]: < 0.5 µM

COc1ccc(CCNc2nc(C)c(-c3nc4cnccc4s3)c(N[C@@H]3C[C@H](CO)[C@@H](O)[C@H]3O)n2)cc1Cl [Example 1913]
EC90 [2]: 0.5 to 5 µM

Cc1nc(NCC(F)(F)F)nc(N[C@@H]2C[C@H](CO)[C@@H](O)[C@H]2O)c1-c1nc2ncccc2o1 [Example 2008]
EC90 (replicon RNA level by real time PCR (Taqman), day 3, calculated EC90): 0.5 to 5 µM
